Results: ChEMBL document CHEMBL1201862, “PubChem BioAssay data set” (2004)
Active and inactive are the calls of the source.

Assays:
cells [1] = type: functional, cell-based
[2] = biological target: T1, Trace amine-associated receptor 1 (Homo sapiens, UniProt Q96RJ0); assay: Counterscreen for agonists of the human trace amine associated receptor 1 (hTAAR1): Fluorescence-based cell-based high throughput dose response assay to identify hTAAR1 agonist that also desensitize TAAR1 receptor response.; type: functional
T1 sequence (Q96RJ0 whole entry): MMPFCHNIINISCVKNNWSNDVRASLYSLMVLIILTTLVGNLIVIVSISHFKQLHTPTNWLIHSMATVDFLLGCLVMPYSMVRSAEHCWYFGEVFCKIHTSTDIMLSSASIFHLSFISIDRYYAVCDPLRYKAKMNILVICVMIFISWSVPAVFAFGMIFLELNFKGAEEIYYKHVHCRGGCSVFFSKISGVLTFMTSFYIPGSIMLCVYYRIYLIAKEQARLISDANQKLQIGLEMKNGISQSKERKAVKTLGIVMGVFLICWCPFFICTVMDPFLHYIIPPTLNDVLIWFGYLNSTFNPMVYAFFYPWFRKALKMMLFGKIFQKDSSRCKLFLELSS

[3] = biological target: T1, Trace amine-associated receptor 1; assay: Fluorescence-based cell-based high throughput dose response assay to identify agonists of the human trace amine associated receptor 1 (TAAR1).; type: functional
cells [4] = type: functional, cell-based; remark: listed apart in the source
[5] = biological target: T2, Low molecular weight phosphotyrosine protein phosphatase (Homo sapiens, UniProt P24666); type: functional; details: read-out: IC50_Mean
T2 sequence (P24666 whole entry): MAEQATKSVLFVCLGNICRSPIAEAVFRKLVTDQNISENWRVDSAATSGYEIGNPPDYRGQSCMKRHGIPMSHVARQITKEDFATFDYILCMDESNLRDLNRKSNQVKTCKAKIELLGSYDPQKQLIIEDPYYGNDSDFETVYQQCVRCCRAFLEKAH

[6] = biological target: T2, Low molecular weight phosphotyrosine protein phosphatase; type: functional; details: read-out: IC50_Mean; remark: listed apart in the source
[7] = biological target: T3, Tyrosine-protein phosphatase non-receptor type 11 (Homo sapiens, UniProt Q06124); assay: PTPN11 enzyme inhibitors – biochemical, selectivity assay for STEP inhibitor project, dose response (AID 602367); type: functional; details: read-out: IC50_Mean
T3 sequence (Q06124 whole entry): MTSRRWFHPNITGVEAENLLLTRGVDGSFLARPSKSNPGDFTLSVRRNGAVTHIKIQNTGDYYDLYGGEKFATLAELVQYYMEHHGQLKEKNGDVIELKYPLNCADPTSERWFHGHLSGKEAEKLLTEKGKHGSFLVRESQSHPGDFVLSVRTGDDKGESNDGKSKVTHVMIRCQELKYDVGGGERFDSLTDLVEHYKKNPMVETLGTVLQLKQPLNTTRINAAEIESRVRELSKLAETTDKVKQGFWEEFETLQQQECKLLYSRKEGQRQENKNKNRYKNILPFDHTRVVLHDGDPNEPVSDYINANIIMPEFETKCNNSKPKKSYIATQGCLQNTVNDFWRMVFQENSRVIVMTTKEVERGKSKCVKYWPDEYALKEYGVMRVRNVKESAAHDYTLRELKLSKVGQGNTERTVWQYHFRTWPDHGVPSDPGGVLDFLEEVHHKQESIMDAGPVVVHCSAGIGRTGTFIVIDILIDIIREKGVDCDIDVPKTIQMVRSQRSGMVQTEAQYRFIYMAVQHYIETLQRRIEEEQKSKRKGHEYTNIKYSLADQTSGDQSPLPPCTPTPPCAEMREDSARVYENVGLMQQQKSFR

[8] = biological target: Dual specificity protein phosphatase 3 (Homo sapiens, UniProt P51452); assay: VHR phosphatase inhibition, dose response, selectivity assay for STEP inhibitor project, biochemical (AID 602374); type: functional; details: read-out: IC50_Mean
[9] = biological target: T4, Tyrosine-protein phosphatase non-receptor type 5 (Homo sapiens, UniProt P54829); assay: PTPN5 enzyme inhibition – biochemical, fluorescence intensity, uHTS hits, confirmation (AID 602372); type: functional; details: read-out: IC50_Mean
T4 sequence (P54829 whole entry): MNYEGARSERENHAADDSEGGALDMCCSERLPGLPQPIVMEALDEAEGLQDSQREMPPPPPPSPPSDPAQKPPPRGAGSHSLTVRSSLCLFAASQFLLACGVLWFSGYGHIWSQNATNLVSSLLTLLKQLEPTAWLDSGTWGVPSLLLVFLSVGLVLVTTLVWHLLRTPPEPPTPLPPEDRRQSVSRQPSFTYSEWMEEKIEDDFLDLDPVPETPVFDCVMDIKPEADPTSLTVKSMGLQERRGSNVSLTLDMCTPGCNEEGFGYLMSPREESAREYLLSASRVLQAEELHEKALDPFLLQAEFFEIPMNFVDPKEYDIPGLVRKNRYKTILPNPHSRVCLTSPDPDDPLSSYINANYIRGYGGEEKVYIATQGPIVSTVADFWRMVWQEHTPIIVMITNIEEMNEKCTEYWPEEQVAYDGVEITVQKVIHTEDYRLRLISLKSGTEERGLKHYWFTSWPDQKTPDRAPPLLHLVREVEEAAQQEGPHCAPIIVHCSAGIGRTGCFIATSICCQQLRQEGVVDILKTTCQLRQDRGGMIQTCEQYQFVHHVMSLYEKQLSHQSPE

[10] = biological target: T5, Carboxy-terminal domain RNA polymerase II polypeptide A small phosphatase 1 (Homo sapiens, UniProt Q9GZU7); assay: CTDSP1 inhibitors, concentration-response, biochemical, absorbance readout, ultra-high-throughput screen actives (AID 540297); type: functional
T5 sequence (Q9GZU7 whole entry): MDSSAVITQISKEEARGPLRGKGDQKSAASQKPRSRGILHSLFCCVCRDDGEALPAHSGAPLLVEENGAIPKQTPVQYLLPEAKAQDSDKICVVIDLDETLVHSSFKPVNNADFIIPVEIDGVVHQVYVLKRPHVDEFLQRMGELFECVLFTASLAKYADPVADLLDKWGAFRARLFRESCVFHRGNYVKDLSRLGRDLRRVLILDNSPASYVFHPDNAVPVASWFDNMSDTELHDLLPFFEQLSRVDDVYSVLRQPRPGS

[11] = biological target: T6, Long-chain-fatty-acid--AMP ligase FadD28 (Mycobacterium tuberculosis, UniProt P9WQ59); assay: Fluorescence polarization aasay to screen for inhibitors that compete for the binding of FadD28 to a bisubstrate Measured in Biochemical System Using Plate Reader - 2147-01_Inhibitor_Dose_CherryPick_Activity.; type: functional, Mycobacterium tuberculosis H37Rv
T6 sequence (P9WQ59 whole entry): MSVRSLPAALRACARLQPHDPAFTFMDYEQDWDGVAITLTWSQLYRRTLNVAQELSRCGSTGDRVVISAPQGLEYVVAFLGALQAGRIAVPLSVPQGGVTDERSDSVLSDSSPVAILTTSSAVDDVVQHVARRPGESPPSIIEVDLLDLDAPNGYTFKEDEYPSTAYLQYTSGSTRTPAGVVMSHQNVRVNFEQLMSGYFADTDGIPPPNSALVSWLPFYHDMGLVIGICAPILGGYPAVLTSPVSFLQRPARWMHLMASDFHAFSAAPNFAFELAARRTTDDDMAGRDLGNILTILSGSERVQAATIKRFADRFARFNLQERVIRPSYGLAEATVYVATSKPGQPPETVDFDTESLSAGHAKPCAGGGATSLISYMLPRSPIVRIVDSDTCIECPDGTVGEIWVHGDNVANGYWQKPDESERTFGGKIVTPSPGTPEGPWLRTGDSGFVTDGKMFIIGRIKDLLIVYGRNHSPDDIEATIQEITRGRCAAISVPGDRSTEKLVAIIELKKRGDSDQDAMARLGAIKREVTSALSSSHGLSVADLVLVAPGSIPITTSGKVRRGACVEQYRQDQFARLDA

[12] = biological target: T7, Nuclear receptor subfamily 0 group B member 1 (Homo sapiens, UniProt P51843); type: functional, cell-based;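 further: HEK293T cells transfected with SF-1 and DAX-1 plus StAR promoter luciferase reporter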
T7 sequence (P51843 whole entry): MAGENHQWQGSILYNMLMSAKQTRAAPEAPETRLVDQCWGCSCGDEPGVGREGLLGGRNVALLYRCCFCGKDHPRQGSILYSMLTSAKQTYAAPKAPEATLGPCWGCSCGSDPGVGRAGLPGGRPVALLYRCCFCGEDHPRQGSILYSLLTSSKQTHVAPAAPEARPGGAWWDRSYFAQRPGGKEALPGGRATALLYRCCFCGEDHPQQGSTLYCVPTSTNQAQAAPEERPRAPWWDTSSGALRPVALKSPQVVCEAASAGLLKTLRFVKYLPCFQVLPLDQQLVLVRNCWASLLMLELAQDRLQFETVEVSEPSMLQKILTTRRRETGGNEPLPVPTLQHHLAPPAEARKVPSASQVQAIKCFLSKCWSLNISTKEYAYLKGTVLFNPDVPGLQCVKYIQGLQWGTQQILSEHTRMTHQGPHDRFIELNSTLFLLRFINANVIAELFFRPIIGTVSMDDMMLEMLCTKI

Dual specificity protein phosphatase 3, sequence (P51452 whole entry): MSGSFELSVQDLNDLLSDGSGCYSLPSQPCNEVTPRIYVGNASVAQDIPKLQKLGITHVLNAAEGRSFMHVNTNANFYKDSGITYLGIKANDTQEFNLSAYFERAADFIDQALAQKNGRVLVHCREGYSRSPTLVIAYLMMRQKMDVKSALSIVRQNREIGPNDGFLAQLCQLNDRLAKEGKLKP

Row | SMILES | IC50 (cells [1]) | IC50 [2] | EC50 [3] | EC50 (cells [4]) | further results
1 | COc1ccc(CNCCc2ccccc2F)c(OC)c1C | > 29.9 µM (inactive) | 3.46 µM (active) | 0.498 µM (active) | > 29.9 µM (inactive) | 
2 | O=C(COc1ccc(/C=N/NC(=O)c2ccccc2O)cc1)Nc1ccccc1 |  |  |  |  | IC50 [5]: 16.4 µM (active); IC50 [6]: 39.9 µM (inactive); IC50 [7]: 4.22 µM (active); IC50 [8]: 3.88 µM (active); IC50 [9]: 11.7 µM (active); IC50 [10]: 5.32 µM (active)
3 | COC(=O)c1ccc(COc2ccc(/C=N/Nc3cccc(C(=O)O)c3)cc2)cc1 |  |  |  |  | AC50 [11]: 48.9 µM (active)
4 | CCCCCCCCN1C(=O)[C@@H](CC(=O)NCCc2ccccc2OC)C[C@@]2(C(=O)OC)C1=C[C@H](C(C)(C)C)O[C@@H]2C | > 29.9 µM (inactive) | 6.93 µM (active) | 5.23 µM (active) | > 29.9 µM (inactive) | 
5 | O=C(NCCc1ccccc1)c1nc(C(F)(F)F)[nH]c1-c1ccccc1 | > 29.9 µM (inactive) | 9.43 µM (active) | 4.78 µM (active) | > 29.9 µM (inactive) | 
6 | COC(=O)Nc1nc2ccc(C(=O)c3cccs3)cc2[nH]1 [NOCODAZOLE] |  |  |  |  | IC50 [12]: > 833 nM (active)
